The text below walks through data of patent US20210353579A1, “HIGH PENETRATION COMPOSITIONS AND USES THEREOF” (Techfields Pharma Co., Ltd., priority 2006, published 2021).

The subject of data set [1] is mice (SLAC:NOD-IDDM, type 1 diabetes). As to the kind of experiment: Blood glucose in type 1 diabetes mice, transdermal. It is filed as in vivo, mouse. Conditions: for Blood glucose, Average: average fourth to seventh week, no fasting, equal to 30 mg/kg of NSAIAs once per day for 7 weeks; for Blood glucose, Baseline: equal to 30 mg/kg of NSAIAs. The text has this:
The pro-drugs in this invention lower blood glucose levels in mouse models (SLAC:NOD-IDDM, type 1 diabetes, n=7). 50% acetone solution of diethylaminoethyl acetylsalicylate.acetylsalicylic acid salt (P-1, in acetone); 4-acetamidophenyl salicylyldimethylaminobutyrate.HCl (P-6), diethylaminoethyl 5-(2,4-difluorophenyl) acetylsalicylate.5-(2,4-difluorophenyl) acetylsalicylic acid salt (P-8), diethylaminoethyl salicylsalicylate.AcOH (P-9), diethylaminoethyl salicylate.AcOH (P-10), diethylaminoethyl 5-acetamido-acetylsalicylate (P-58), diethylaminoethyl acetylsalicylsalicylate. acetylsalicylsalicylic acid salt (P-59), diethylaminoethyl acetylsalicylsalicylate. acetylsalicylsalicylsalicylic acid salt (P-60) (equal to of 30 mg/kg of NSAIAs) were administered transdermally to the backs (about 1.5 cm^2) of mice (fur was shaved) once per day (at 8 am) for 7 weeks. The blood glucose levels were measured once every 3 days at 3 pm (no fasting) from the fourth week to the seventh week.

Data set [2] concerns rats (SLAC/GK, type 2 diabetes). Kind of data set: Blood glucose in type 2 diabetes rats, transdermal. In kind it is in vivo, rat. Conditions: diabetic rats (SLAC/GK); for Blood glucose, Average: average second to fifth week, no fasting, equal to 20 mg/kg of NSAIAs once per day for 5 weeks; for Blood glucose, Baseline: equal to 20 mg/kg of NSAIAs once per day. The source says: (§1) HPPs lower blood glucose level in rat models (SLAC/GK, type 2 diabetes, n=7). 50% acetone solution of diethylaminoethyl acetylsalicylate.acetylsalicylic acid salt (P-1, in acetone); 4-acetamidophenyl salicylyldimethylaminobutyrate.HCl (P-6), diethylaminoethyl 5-(2,4-difluorophenyl) acetylsalicylate.5-(2,4-difluorophenyl).acetylsalicylic acid salt (P-8), diethylaminoethyl salicylsalicylate.AcOH (P-9), diethylaminoethyl salicylate.AcOH (P-10), diethylaminoethyl 5-acetamido-acetylsalicylate (P-58), diethylaminoethyl acetylsalicylsalicylate.acetylsalicylsalicylic acid salt (P-59), diethylaminoethyl acetylsalicylsalicylate.acetylsalicylsalicylsalicylic acid salt (P-60) (equal to of 20 mg/kg of NSAIAs) are administered transdermally to the backs (about 1.5 cm^2) of rats (fur was shaved) once per day (at 8 am) for 5 weeks. The blood glucose levels are measured once every 3 days at 3 pm (no fasting) from the second week to the fifth week (Table 24). The blood lipid levels are measured at the end of the fifth week (Table 25).

Data set [3] shares this test system. Kind of data set: Blood lipid in type 2 diabetes rats, oral with food. It is filed as in vivo, rat. Particulars: for Cholesterol (HDL), Baseline / Cholesterol (total), Baseline / Triglycerides, Baseline: equal to 20 mg/kg of NSAIAs; for Cholesterol (HDL), Average / Cholesterol (total), Average / Triglycerides, Average: end of the fifth week, equal to 20 mg/kg of NSAIAs every day. The text has this:
(§2) 20% acetone solution of diethylaminoethyl acetylsalicylate.acetylsalicylic acid salt (P-1, in acetone); 4-acetamidophenyl salicylyldimethylaminobutyrate.HCl (P-6), diethylaminoethyl 5-(2,4-difluorophenyl) acetylsalicylate.5-(2,4-difluorophenyl) acetylsalicylic acid salt (P-8), diethylaminoethyl salicylsalicylate.AcOH (P-9), diethylaminoethyl salicylate.AcOH (P-10), diethylaminoethyl 5-acetamido-acetylsalicylate (P-58), diethylaminoethyl acetylsalicylsalicylate. acetylsalicylsalicylic acid salt (P-59), diethylaminoethyl acetylsalicylsalicylate. acetylsalicylsalicylsalicylic acid salt (P-60) (equal to of 20 mg/kg of NSAIAs) were mixed with food and were orally administered to the rats (SLAC/GK, type 2 diabetes, n=7) with food every day for 5 weeks. The blood glucose levels were measured once every 3 days at 3 pm (no fasting) from the second week to the fifth week. The blood lipid levels were measured at the end of the fifth week.

The test system is the same in data set [4]. Kind of data set: Blood glucose in type 2 diabetes rats, oral with food. It is filed as in vivo, rat. Conditions: for Blood glucose, Diabetic rats, Average: average second to fifth week, no fasting, equal to 20 mg/kg of NSAIAs every day for 5 weeks; for Blood glucose, Diabetic rats, Baseline: equal to 20 mg/kg of NSAIAs.
Description: as §2

Data set [5] deals with normal rats. As to the kind of experiment: Blood glucose in normal rats, transdermal. It is filed as in vivo, rat. Particulars: for Blood glucose, Average: normal rats (second Average line of Table 24), average second to fifth week, equal to 20 mg/kg of NSAIAs once per day; for Blood glucose, Baseline: normal rats (second Baseline line of Table 24), equal to 20 mg/kg of NSAIAs.
Description: as §1, with “25). […]” for “25).”

Data set [6] concerns rats (SLAC/GK, type 2 diabetes). Kind of data set: Blood lipid in type 2 diabetes rats, transdermal. In kind it is in vivo, rat. Conditions: for Cholesterol (HDL), Baseline / Cholesterol (total), Baseline / Triglycerides, Baseline: equal to 20 mg/kg of NSAIAs; for Cholesterol (HDL), Average / Cholesterol (total), Average / Triglycerides, Average: end of the fifth week, equal to 20 mg/kg of NSAIAs once per day.
Description: as §1

In data set [7] the test system is normal rats. As to the kind of experiment: Blood glucose in normal rats, oral with food. In kind it is in vivo, rat. Particulars: for Blood glucose, Normal rats, Average: average second to fifth week, equal to 20 mg/kg of NSAIAs every day; for Blood glucose, Normal rats, Baseline: equal to 20 mg/kg of NSAIAs.
In data set [8] the test system is Human breast cancer cells (BCAP-37). As to the kind of experiment: Human breast cancer xenograft in nude mice, topical. Particulars: day 42, 30 μl of 5% (1.5 mg) topically every 8 hours from day 14; for Tumor size: control 800 ± 100. The protocol: Human breast cancer cells (BCAP-37, 2-3 mm^3 of tumor tissue was used in each mouse) are subcutaneously xenografted into the front leg of nude mice (BALB, 12 groups, 7 mice each group). […] Then 30 μl of 5% (equal to 1.5 mg of the HPPs) diethylaminoethyl acetylsalicylate.acetylsalicylic acid salt (P-1, in acetone); 1-piperidinepropyl 2[(2,6-dichlorophenyl)amino]benzene acetate.AcOH (P-2, in water), 1-pyrrolidinepropyl 2-(3-benzoylphenyl) propionate.AcOH (P-3, in water), 4-piperidinemethyl 2-(3-phenoxyphenyl)propionate.AcOH (P-4, in water), 3-piperidinemethyl 2-(ρ-isobutylphenyl) propionate.AcOH (P-5, in water), diethylaminoethyl 1-(p-chlorobenzoyl)-5-methoxy-2-methylindole 3-acetate.AcOH (P-11, in water), 2-(4-morpholinyl)ethyl (Z)-5-fluoro-2-methyl-1-[(4-methylsulfinyl) phenylmethylene]-1H-indene-3-acetate.AcOH (P-12, in water), diethylaminoethyl

`CC(=O)Oc1ccc(-c2ccc(F)cc2F)cc1C(=O)O.CCN(CC)CCOC(=O)c1cc(-c2ccc(F)cc2F)ccc1OC(C)=O` [P-8, diethylaminoethyl 5-(2,4-difluorophenyl) acetylsalicylate.5-(2,4-difluorophenyl) acetylsalicylic acid salt]: in data set [1], the “Blood glucose, Average” value was found to be 9.1 ± 1 mmol/L and the “Blood glucose, Baseline” value is 29.1 ± 5 mmol/L. Further, in data set [2], the “Blood glucose, Average” value is 8.1 ± 1 mmol/L and the “Blood glucose, Baseline” value worked out at 17.1 ± 3 mmol/L. For the same compound, in data set [3], the “Cholesterol (HDL), Baseline” value was 1.4 ± 0.2 mmol/L; the “Cholesterol (total), Baseline” value was determined as 7.8 ± 0.6 mmol/L; the “Triglycerides, Baseline” value is on record as 5.6 ± 0.7 mmol/L; the “Cholesterol (HDL), Average” value is 1.3 ± 0.2 mmol/L. In addition, in data set [3], the “Cholesterol (total), Average” value was 5.7 ± 0.3 mmol/L and the “Triglycerides, Average” value was 1.8 ± 0.2 mmol/L. In data set [4], the “Blood glucose, Diabetic rats, Average” value was found to be 7.3 ± 1 mmol/L and the “Blood glucose, Diabetic rats, Baseline” value stood at 16.1 ± 3 mmol/L. For the same compound, in data set [5], the “Blood glucose, Average” value was determined as 6.8 ± 1 mmol/L and the “Blood glucose, Baseline” value turned out to be 7.1 ± 1 mmol/L. Also, in data set [6], the “Cholesterol (HDL), Baseline” value amounted to 1.6 ± 0.2 mmol/L; the “Cholesterol (total), Baseline” value amounted to 7.6 ± 0.6 mmol/L; the “Triglycerides, Baseline” value came to 5.6 ± 0.6 mmol/L; the “Cholesterol (HDL), Average” value is on record as 1.5 ± 0.2 mmol/L. Besides, in data set [6], the “Cholesterol (total), Average” value is 5.3 ± 0.3 mmol/L and the “Triglycerides, Average” value is 1.9 ± 0.2 mmol/L. For the same compound, in data set [7], the “Blood glucose, Normal rats, Average” value is reported as 6.8 ± 1 mmol/L and the “Blood glucose, Normal rats, Baseline” value came to 7.0 ± 1 mmol/L.
As for `CCN(CC)CCOC(=O)c1cc(NC(C)=O)ccc1OC(C)=O` [P-58, diethylaminoethyl 5-acetamido-acetylsalicylate], in data set [1], the “Blood glucose, Average” value came out at 7.9 ± 1 mmol/L and the “Blood glucose, Baseline” value worked out at 27.1 ± 3 mmol/L. Also, in data set [2], the “Blood glucose, Average” value was 8.4 ± 1 mmol/L and the “Blood glucose, Baseline” value came out at 17.1 ± 3 mmol/L. Also, in data set [3], the “Cholesterol (HDL), Baseline” value is given as 1.8 ± 0.1 mmol/L; the “Cholesterol (total), Baseline” value is recorded as 7.9 ± 0.5 mmol/L; the “Triglycerides, Baseline” value turned out to be 5.5 ± 0.5 mmol/L; the “Cholesterol (HDL), Average” value is listed as 1.6 ± 0.2 mmol/L. In data set [3], the “Cholesterol (total), Average” value turned out to be 5.8 ± 0.4 mmol/L and the “Triglycerides, Average” value is on record as 1.8 ± 0.2 mmol/L. In addition, in data set [4], the “Blood glucose, Diabetic rats, Average” value is 8.4 ± 1 mmol/L and the “Blood glucose, Diabetic rats, Baseline” value is given as 17.0 ± 3 mmol/L. In data set [5], the “Blood glucose, Average” value is 7.1 ± 1 mmol/L and the “Blood glucose, Baseline” value was 6.9 ± 1 mmol/L. In data set [6], the “Cholesterol (HDL), Baseline” value turned out to be 1.3 ± 0.1 mmol/L; the “Cholesterol (total), Baseline” value turned out to be 7.8 ± 0.5 mmol/L; the “Triglycerides, Baseline” value was 5.3 ± 0.5 mmol/L; the “Cholesterol (HDL), Average” value was determined as 1.4 ± 0.2 mmol/L. Further, in data set [6], the “Cholesterol (total), Average” value turned out to be 5.6 ± 0.4 mmol/L and the “Triglycerides, Average” value is reported as 2.4 ± 0.2 mmol/L. Also, in data set [7], the “Blood glucose, Normal rats, Average” value is given as 7.2 ± 1 mmol/L and the “Blood glucose, Normal rats, Baseline” value is 6.9 ± 1 mmol/L.
Regarding `CC(=O)O.O=C(OCCCN1CCCC1)c1ccccc1Nc1cccc(C(F)(F)F)c1` [P-48], in data set [8] (control 22 ± 2), the Mouse weight is recorded as 22 ± 3 g. Further, the Tumor size in data set [8] is 290 ± 50 mm^3.
Turning to `CC(=O)O.CC1=C(CC(=O)OCCN2CCOCC2)c2cc(F)ccc2/C1=C\c1ccc([S+](C)[O-])cc1` (centres unmarked) [P-12, 2-(4-morpholinyl)ethyl (Z)-5-fluoro-2-methyl-1-[(4-methylsulfinyl)phenylmethylene]-1H-indene-3-acetate.AcOH], the Tumor size in data set [8] was 250 ± 50 mm^3.
